Here are results for two compounds from ChEMBL document CHEMBL6103594, “Synthesis and evolution of 16-membered macrolide carrimycin derivatives as a novel class of anti-HCoV-OC43 agents targeting viral FSE RNA” (Eur J Med Chem, 2025).

The source made the active and inactive calls. The rule behind the calls is not given here.

Data set [1] concerns the target T1, DIS3-like exonuclease 2 (Homo sapiens, UniProt Q8IYB7).
T1 sequence (Q8IYB7 whole entry): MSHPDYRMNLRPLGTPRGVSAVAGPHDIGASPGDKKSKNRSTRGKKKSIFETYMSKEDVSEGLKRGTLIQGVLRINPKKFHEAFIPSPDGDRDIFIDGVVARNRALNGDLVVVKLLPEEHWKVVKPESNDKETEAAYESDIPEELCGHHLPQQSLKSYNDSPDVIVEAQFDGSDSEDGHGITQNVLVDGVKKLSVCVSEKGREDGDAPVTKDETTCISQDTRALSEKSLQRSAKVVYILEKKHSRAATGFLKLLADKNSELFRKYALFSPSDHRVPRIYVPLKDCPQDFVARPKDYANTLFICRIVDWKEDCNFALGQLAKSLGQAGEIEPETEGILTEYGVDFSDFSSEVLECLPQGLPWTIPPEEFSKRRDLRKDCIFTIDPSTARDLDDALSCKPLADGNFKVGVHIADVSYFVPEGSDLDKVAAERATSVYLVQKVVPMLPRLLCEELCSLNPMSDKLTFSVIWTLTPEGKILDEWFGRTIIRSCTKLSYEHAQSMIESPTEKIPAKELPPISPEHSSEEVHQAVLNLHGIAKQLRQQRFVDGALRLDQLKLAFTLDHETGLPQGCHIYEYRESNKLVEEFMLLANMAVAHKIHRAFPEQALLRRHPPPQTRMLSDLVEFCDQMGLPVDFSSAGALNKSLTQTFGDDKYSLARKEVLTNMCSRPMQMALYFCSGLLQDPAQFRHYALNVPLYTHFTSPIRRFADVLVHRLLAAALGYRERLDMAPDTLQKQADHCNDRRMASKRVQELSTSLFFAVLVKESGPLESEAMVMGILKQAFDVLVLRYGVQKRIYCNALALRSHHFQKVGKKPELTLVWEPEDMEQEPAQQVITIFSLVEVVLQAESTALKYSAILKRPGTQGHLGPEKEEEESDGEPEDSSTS
Kind of data set: (§1) Binding affinity to DIS3L2 (unknown origin) assessed as dissociation constant by SPR analysis. (Surface plasmon resonance follows binding to a sensor surface in real time, without labels.)

The target in data set [2] is T2, DIS3-like exonuclease 2 (Homo sapiens) (UniProt Q8IYB7).
T2 sequence (whole entry): T1 sequence (Q8IYB7 whole entry)
The description is as §1.

Data set [3] relates to FSE RNA pseudoknot. Kind of data set: Binding affinity to CM5 chip-immobilized coronavirus FSE RNA pseudoknot assessed as dissociation constant by SPR analysis. The format is nucleic-acid assay, unidentified human coronavirus.
Data set [4] concerns Human coronavirus OC43. Description: Antiviral activity against HCoV-OC43 infected in human NCI-H460 cells incubated for 72 hrs by CCK8 assay. The format is functional, organism-based. The note with it: Betacoronavirus 1, NCI-H460, 72 h.
The nature of data set [5]: Cytotoxicity against human NCI-H460 cells incubated for 72 hrs by CCK8 assay. The format is toxicity, cell-based. The note with it: read-out: EC50. A general note: Formazan colour is commonly taken as a measure of viable cells.
Data set [6] is described as follows: Selectivity index, ratio of CC50 for cytotoxicity against human NCI-H460 cells to EC50 for antiviral activity against HCoV-OC43 infected in human NCI-H460 cells. The data set is classed as toxicity, cell-based, NCI-460. The note with it: read-out: Ratio CC50/EC50.
Data set [7] has as its system Human coronavirus OC43. Kind of data set: Antiviral activity against HCoV-OC43 at replication stage in human Huh-7 cells assessed as dsRNA level at 2 uM treated immediately after infection incubated for 4 to 10 hrs by immunofluorescence based analysis. The data set is classed as functional, organism-based. Conditions: time 4-10 hrs.
In data set [8] the test system is Human coronavirus 229E. Description: Antiviral activity against HCoV-229E at replication stage in human Huh-7 cells assessed as dsRNA level at 2 uM treated immediately after infection incubated for 4 to 10 hrs by immunofluorescence based analysis. Conditions: time 4-10 hrs. The format is functional, organism-based.
Data set [9] has as its target T2, DIS3-like exonuclease 2 (Homo sapiens). Kind of data set: Binding affinity to DIS3L2 in human NCI-H460 cells assessed as increase in thermal stability at 10 uM incubated for 6 hrs followed by heat exposure at 55 to 75 degreeC for 3 mins by CETSA. The data set is classed as cell-based. The note with it: time 363.0 min.
Data set [10] deals with Human coronavirus 229E. Kind of data set: Antiviral activity against HCoV-229E. The format is functional, organism-based. The note with it: Human coronavirus 229E.
In data set [11] the test system is Human coronavirus OC43. Description: Antiviral activity against HCoV-OC43. The format is functional, organism-based. The note with it: Betacoronavirus 1.

Consider `CO[C@@H]1[C@@H](O[C@@H]2O[C@H](C)[C@@H](O[C@H]3C[C@@](C)(O)[C@@H](OC(=O)Cc4ccc(Cl)cc4)[C@H](C)O3)[C@H](N(C)C)[C@H]2O)[C@@H](CC=O)C[C@@H](C)[C@@H](O[C@H]2CC[C@H](N(C)C)[C@@H](C)O2)/C=C/C=C/C[C@@H](C)OC(=O)C[C@H]1O`, for which the values for the Kd in data set [1] and in data set [3] were 4.67 µM and 7.29 µM, respectively. Further, the Activity entry in [2] and in data set [3] (unidentified human coronavirus) was “Dose-dependent-effect” throughout. Also, the EC50 in data set [4] is 0.85 µM. Also, the CC50 at 72 h in data set [5] was found to be 17.4 µM. In addition, the selectivity ratio in [6] came out at 20.5. In addition, the outcome in data set [7], in data set [8] and in data set [9] was Active.
As for `CCC(=O)O[C@@H]1CC(=O)O[C@H](C)C/C=C/C=C/[C@H](O[C@H]2CC[C@H](N(C)C)[C@@H](C)O2)[C@H](C)C[C@H](CC=O)[C@H](O[C@@H]2O[C@H](C)[C@@H](O[C@H]3C[C@@](C)(O)[C@@H](OC(=O)CC(C)C)[C@H](C)O3)[C@H](N(C)C)[C@H]2O)[C@H]1OC`, the results for the EC50 in [10] and in [11] were 3.52 µM and 10.2 µM, respectively.

A word on the Kd: it is a measure of binding affinity in units of concentration. As a reminder, the EC50 is the midpoint of the concentration-response curve. Lower therefore signals greater potency.
